The values below come from ChEMBL document CHEMBL1152232, “Muscarinic acetylcholine receptor antagonists: SAR and optimization of tyrosine ureas” (Bioorg Med Chem Lett, 2008).

Structures are written as SMILES.

The IC50 is the concentration at which inhibition is half-maximal.

For data set [1], the target named is Muscarinic acetylcholine receptor M1 and M3 (Homo sapiens) (UniProt P20309+P11229). As to the kind of experiment: Selectivity for human recombinant muscarinic M3 receptor over human recombinant muscarinic M1 receptor.
The target of data set [2] is T1, Muscarinic acetylcholine receptor M1 (Homo sapiens, UniProt P11229).
T1 sequence (P11229 whole entry): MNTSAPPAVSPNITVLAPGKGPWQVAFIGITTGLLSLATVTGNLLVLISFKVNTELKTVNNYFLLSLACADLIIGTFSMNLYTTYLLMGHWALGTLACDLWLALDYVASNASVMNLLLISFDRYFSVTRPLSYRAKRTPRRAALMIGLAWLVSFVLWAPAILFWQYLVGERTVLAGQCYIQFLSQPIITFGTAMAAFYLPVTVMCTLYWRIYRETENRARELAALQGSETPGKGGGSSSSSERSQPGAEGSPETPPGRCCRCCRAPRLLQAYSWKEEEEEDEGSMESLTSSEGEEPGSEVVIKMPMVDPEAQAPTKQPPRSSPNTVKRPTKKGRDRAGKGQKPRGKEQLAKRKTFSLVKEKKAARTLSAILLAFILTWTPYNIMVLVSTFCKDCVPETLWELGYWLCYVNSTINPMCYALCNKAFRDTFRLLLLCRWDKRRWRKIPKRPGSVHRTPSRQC
As to the kind of experiment: Antagonist activity at human recombinant muscarinic M1 receptor expressed in CHO cells assessed as inhibition of acetylcholine-induced intracellular Ca2+ mobilization by FLIPR assay. In kind it is functional, cell-based. Background: A change in cytosolic calcium serves as a functional read-out for many receptors and channels.

Data set [3] deals with Muscarinic acetylcholine receptors; M2 & M3 (Homo sapiens) (UniProt P20309+P08172). As to the kind of experiment: Selectivity for human recombinant muscarinic M3 receptor over human recombinant muscarinic M2 receptor.
Data set [4] addresses T2, Muscarinic acetylcholine receptor M2 (Homo sapiens, UniProt P08172).
T2 sequence (P08172 whole entry): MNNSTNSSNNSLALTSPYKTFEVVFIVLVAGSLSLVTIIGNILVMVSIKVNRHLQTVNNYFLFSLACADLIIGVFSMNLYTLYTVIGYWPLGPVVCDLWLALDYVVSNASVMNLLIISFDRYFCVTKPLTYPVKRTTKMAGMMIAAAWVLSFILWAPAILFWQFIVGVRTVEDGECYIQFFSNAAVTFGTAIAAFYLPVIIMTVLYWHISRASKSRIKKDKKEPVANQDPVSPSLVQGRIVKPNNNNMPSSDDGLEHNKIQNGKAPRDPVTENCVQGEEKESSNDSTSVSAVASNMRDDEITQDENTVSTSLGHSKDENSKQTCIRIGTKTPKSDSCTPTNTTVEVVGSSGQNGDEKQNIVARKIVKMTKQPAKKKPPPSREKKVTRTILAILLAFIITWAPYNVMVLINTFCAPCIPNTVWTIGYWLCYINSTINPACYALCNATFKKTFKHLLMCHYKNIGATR
As to the kind of experiment: Antagonist activity at human recombinant muscarinic M2 receptor expressed in CHO cells coexpressing chimeric G protein Gqi5 assessed as inhibition of acetylcholine-induced intracellular Ca2+ mobilization by FLIPR assay. In kind it is functional, cell-based.

Data set [5] concerns the target Muscarinic acetylcholine receptor M3 (Homo sapiens, UniProt P20309). As to the kind of experiment: Antagonist activity at human recombinant muscarinic M3 receptor expressed in CHO cells assessed as inhibition of acetylcholine-induced intracellular Ca2+ mobilization by FLIPR assay. Type of data set: functional, cell-based.
The nature of data set [6]: Permeability across artificial membrane. Type of data set: ADME. Particulars: PAMPA; read-out: permeability. On the technique in general: PAMPA measures passive passage across an artificial lipid membrane.

Muscarinic acetylcholine receptor M1 and M3 (Homo sapiens), sequence (P20309 whole entry, looked up, one chain of several): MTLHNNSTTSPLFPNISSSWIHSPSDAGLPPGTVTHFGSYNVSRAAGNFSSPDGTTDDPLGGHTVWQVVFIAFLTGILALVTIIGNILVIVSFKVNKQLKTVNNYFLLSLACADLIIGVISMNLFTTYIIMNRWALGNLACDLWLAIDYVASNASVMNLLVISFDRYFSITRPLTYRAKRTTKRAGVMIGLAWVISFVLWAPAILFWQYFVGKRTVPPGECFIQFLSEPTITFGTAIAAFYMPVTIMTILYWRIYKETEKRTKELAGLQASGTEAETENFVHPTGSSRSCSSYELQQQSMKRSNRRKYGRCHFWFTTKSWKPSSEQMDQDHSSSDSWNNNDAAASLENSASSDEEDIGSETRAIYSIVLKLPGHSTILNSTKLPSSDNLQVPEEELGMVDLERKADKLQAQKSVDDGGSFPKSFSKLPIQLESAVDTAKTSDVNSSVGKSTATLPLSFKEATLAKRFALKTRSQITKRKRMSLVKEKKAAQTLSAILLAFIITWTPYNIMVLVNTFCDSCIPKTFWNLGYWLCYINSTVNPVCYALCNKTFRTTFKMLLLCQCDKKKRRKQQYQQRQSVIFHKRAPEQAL
Muscarinic acetylcholine receptor M3, sequence (P20309 whole entry): as the sequence (P20309 whole entry, looked up, one chain of several) above
Muscarinic acetylcholine receptors; M2 & M3 (Homo sapiens), sequence (P20309 whole entry, looked up, one chain of several): as above

In the case of `CCOC(=O)c1ccc(NC(=O)N[C@@H](Cc2ccc(O)cc2)C(=O)NC2CCN(Cc3ccc4c(c3)OCO4)C2)cc1` (stereo partly drawn), the Selectivity ratio came out at 100 in data set [1] and 10 in data set [3]. Moreover, the figures for the IC50 in data set [2], in data set [4] and in data set [5] were 1000 nM, 200 nM and 31.6 nM, respectively.

As to `CC(C)OC(=O)c1ccc(NC(=O)N[C@@H](Cc2ccc(O)cc2)C(=O)NC2CCN(Cc3ccc(O)cc3)C2)cc1` (stereo partly drawn), the Selectivity ratio in data set [1] is 100; in data set [3] it was above 10. In addition, the values for the IC50 in data set [2], in data set [4] and in data set [5] were 1000 nM, 79.4 nM and 5.01 nM, respectively.

`CCOC(=O)c1ccc(NC(=O)N[C@@H](Cc2ccc(O)cc2)C(=O)NC2CCN(Cc3cccc(O)c3)C2)cc1` (stereo partly drawn): the values for the Selectivity ratio in data set [1] and in data set [3] were 100 and 10, respectively. Moreover, the IC50 in data set [2] is 794 nM; in data set [4], 158 nM; in data set [5] it was 20 nM.

Take `CCOC(=O)c1ccc(NC(=O)N[C@@H](Cc2ccc(O)cc2)C(=O)NC2CCN(CC)C2)cc1` (stereo partly drawn): the values for the Selectivity ratio in data set [1] and in data set [3] were 100 and 10, respectively. Besides, the IC50 in data set [2] is above 3160 nM; in data set [4] it was 2510 nM; in data set [5] it was 794 nM.

With `CCOC(=O)c1ccc(NC(=O)N[C@@H](Cc2ccc(O)cc2)C(=O)NC2CCN(Cc3cccc(OC)c3)C2)cc1` (stereo partly drawn), the Selectivity ratio in data set [1] was 100; in data set [3], 10. Also, the IC50 is 2510 nM in data set [2], 316 nM in data set [4] and 25.1 nM in data set [5].

Regarding `CC(C)OC(=O)c1ccc(NC(=O)N[C@@H](Cc2ccc(O)cc2)C(=O)N[C@H]2CCC[N+](C)(Cc3cccc(O)c3)C2)cc1.[I-]` (stereo partly drawn), the Papp in data set [6] is below 0.3 ×10⁻⁶ cm/s.

On to `CCOC(=O)c1ccc(NC(=O)N[C@@H](Cc2ccc(O)cc2)C(=O)NC2CCN(Cc3ccccc3OC)C2)cc1` (stereo partly drawn), for which the figures for the Selectivity ratio in data set [1] and in data set [3] were 100 and 10, respectively. The IC50 was 1000 nM in data set [2], 158 nM in data set [4] and 50.1 nM in data set [5].

Regarding `CCOC(=O)c1ccc(NC(=O)N[C@@H](Cc2ccc(O)cc2)C(=O)NC2CCN(Cc3ccccc3)C2)cc1` (stereo partly drawn), the Selectivity ratio in data set [1] was 100; in data set [3], 10. Besides, the results for the IC50 in data set [2], in data set [4] and in data set [5] were 2000 nM, 200 nM and 15.8 nM, respectively.

In the case of `CCOC(=O)c1ccc(NC(=O)N[C@@H](Cc2ccc(O)cc2)C(=O)NC2CCN(Cc3cccc(C(F)(F)F)c3)C2)cc1` (stereo partly drawn), the Selectivity ratio in data set [1] is 100; in data set [3] it was 10. The IC50 was above 3160 nM in data set [2], 631 nM in data set [4] and 15.8 nM in data set [5].

As for `C=CC[N+]1(Cc2cccc(O)c2)CCC[C@H](NC(=O)[C@H](Cc2ccc(O)cc2)NC(=O)Nc2ccc(C(=O)OC(C)C)cc2)C1` (stereo partly drawn), the Selectivity ratio in data set [1] is 100; in data set [3], above 10. Besides, the Kb was 15.8 nM in data set [2] (read-out: pA2 (converted)), 1.58 nM in data set [4] (read-out: pA2 (converted)) and 0.1 nM in data set [5] (read-out: pA2 (converted)).

For `CCOC(=O)c1ccc(NC(=O)N[C@@H](Cc2ccc(O)cc2)C(=O)NC2CCN(Cc3ccc(OC)cc3)C2)cc1` (stereo partly drawn), the Selectivity ratio in data set [1] stood at 100; in data set [3] it was 10. The values for the IC50 in data set [2], in data set [4] and in data set [5] were 501 nM, 251 nM and 20 nM, respectively.

On to `CCOC(=O)c1ccc(NC(=O)N[C@@H](Cc2ccc(O)cc2)C(=O)NC2CCN(Cc3cccc(Cl)c3)C2)cc1` (stereo partly drawn), for which the Selectivity ratio in data set [1] stood at 100; in data set [3] it was 10. Besides, the IC50 was 1260 nM in data set [2], 126 nM in data set [4] and 7.94 nM in data set [5].

Regarding `CCOC(=O)c1ccc(NC(=O)N[C@@H](Cc2ccc(O)cc2)C(=O)NC2CCN(Cc3ccc(O)cc3)C2)cc1` (mixture of isomers), the Selectivity ratio in data set [1] amounted to 100; in data set [3], 10.

With `CCOC(=O)c1ccc(NC(=O)N[C@@H](Cc2ccc(O)cc2)C(=O)NC2CCN(Cc3cccc(C#N)c3)C2)cc1` (stereo partly drawn), the results for the Selectivity ratio in data set [1] and in data set [3] were 100 and 10, respectively. Further, the IC50 in data set [2] was 251 nM; in data set [4] it was 100 nM; in data set [5], 6.31 nM.

As for `CCOC(=O)c1ccc(NC(=O)N[C@@H](Cc2ccc(O)cc2)C(=O)NC2CCN(CC3CC3)C2)cc1` (stereo partly drawn), the results for the Selectivity ratio in data set [1] and in data set [3] were 100 and 10, respectively. Further, the IC50 is 631 nM in data set [2], 100 nM in data set [4] and 25.1 nM in data set [5].
